Where “and” joins values, the source holds several entries; their conditions need not be identical. Equal values may be shown once. Read-outs that look alike come from different tables or passages of the source.
Assays:
[1] = system: LPS-induced microglia activation; experiment: Image-based assay of LPS-induced microglia activation (HTS and dose response); assay type: cell-based, rat; conditions: Rattus norvegicus, Microglia; for inhibition at 10 µM: primary microglia HTS, LPS stimulation, read-out: LPS % inhibition
in vitro [2] = conditions: rat, Cell Toxicity IC50 (uM) [cFib assay]
in vitro [3] = conditions: rat
primary rat microglia [4] = conditions: rat
[5] = system: fibrin- and LPS-induced microglia activation; experiment: cells; assay type: cell-based, rat; conditions: for inhibition at 10 µM: Rattus norvegicus
primary rat microglia [6] = experiment: Cell toxicity (dead cells, size <150 μm2) in LPS assay; conditions: for IC50: read-out: Cell Toxicity IC50 (uM) [LPS assay], LPS assay; for LPS % cell toxicity: primary microglia HTS, LPS stimulation
[7] = system: fibrin-induced microglia activation; experiment: Image-based assay of fibrin-induced microglia activation (HTS and dose response); assay type: cell-based, rat; conditions: for IC50 / inhibition at 10 µM: Rattus norvegicus, Microglia; for inhibition at 10 µM: primary microglia HTS, fibrin stimulation, read-out: Fibrin % inhibition
primary rat microglia [8] = experiment: Cell toxicity (dead cells, size <150 μm2) in coated fibrin (cFib) assay; conditions: primary microglia HTS;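 on Fibrin % cell toxicity: share of dead cells sized under 150 µm2 at 10 µM in fibrin-stimulated microglia HTS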
[9] = 48 h, Table 1, dose response 0.001-20 μM, triplicates, primary rat microglia, 48 h, read-out: LPS IC50
[10] = 48 h, increased cell size (>800 μm^2) as marker of activation
[11] = LPS-induced microglia activation, dose response, read-out: LPS IC50 (uM) (Suppl. Table 7)
[12] = Table 3, read-out: LPS IC50 (uM) (Suppl. Table 7)
[13] = Table 6, read-out: LPS IC50 (uM) (Suppl. Table 7)
[14] = dose response, LPS-induced microglia activation, read-out: LPS IC50
[15] = HTS of 1907 compounds, quadrant by fibrin and LPS inhibition
[16] = Microglia, Table 3, read-out: Cherry-picked Hit (Suppl. Table 7)
[17] = Microglia, HTS hit classification, read-out: Hit
[18] = quadrant by fibrin and LPS inhibition in HTS of 1907 compounds
[19] = Table 3, read-out: Fibrin IC50 (uM) (Suppl. Table 7)
[20] = Table 6, read-out: Fibrin IC50 (uM) (Suppl. Table 7)
[21] = increased cell size (>800 μm^2) as marker of activation
[22] = decreased size (<150 μm^2) as marker of toxicity
[23] = 48 h, Table 1, dose response 0.001-20 μM, triplicates, primary rat microglia, 48 h, read-out: Fibrin IC50
[24] = dose response, fibrin-induced microglia activation, read-out: Fibrin IC50
[25] = fibrin-induced microglia activation, dose response, read-out: Fibrin IC50 (uM) (Suppl. Table 7)
[26] = fibrin stimulation, decreased size (<150 μm^2) as marker of toxicity
[27] = hit classification in microglia HTS, read-out: Cherry-picked Hit (Suppl. Table 7)
[28] = listed as Medroxyprogesterone Ac

Compound | IC50 [1, 9] | inhibition at 10 µM [1, 10] | IC50 [1, 11] | IC50 [1, 12] | IC50 [1, 14] | IC50 (in vitro [2]; Table 3) | IC50 (in vitro [2]; cFib assay) | IC50 (in vitro [3]) | Quadrant (FIG. 5b) [5, 15] | inhibition at 10 µM [5, 16] | inhibition at 10 µM [5, 17] | Quadrant (FIG. 5b) ([5]; Table 1, screen at 10 μM) | Quadrant (FIG. 5b) ([5]; Table 3, screen at 10 μM) | Quadrant (FIG. 5b) [5, 18] | inhibition at 10 µM [7, 21] | LPS % cell toxicity (primary rat microglia [6]; [22]) | IC50 [7, 23] | IC50 [7, 24] | IC50 [7, 25] | Fibrin % cell toxicity (primary rat microglia [8]; [26]) | other results
CC(=O)O[C@@]12CO[C@@H]1C[C@H](O)[C@@]1(C)C(=O)[C@H](O)C3=C(C)[C@@H](OC(=O)[C@H](O)[C@@H](NC(=O)OC(C)(C)C)c4ccccc4)C[C@@](O)([C@@H](OC(=O)c4ccccc4)[C@H]21)C3(C)C [Docetaxel, reference compound] | > 20 µM | 32% | > 20 µM | > 20 µM | > 20 µM | > 20 µM | > 20 µM | > 20 µM | Q3 | > 50% | > 50% | Q3 | Q3 | Q3 | 64% | – | – | – | – | – | IC50 [1, 13]: > 20 µM; IC50 (in vitro [2]; cFib assay, Table 6): > 20 µM; LPS % cell toxicity (primary rat microglia [4]): 1%; Quadrant (FIG. 5b) ([5]; microglia HTS, Table 6): Q3; IC50 (primary rat microglia [6]): > 20 µM; IC50 (primary rat microglia [6]; Table 6): > 20 µM; IC50 [7, 19]: 0.002 µM; IC50 [7, 20]: 0.002 µM; Fibrin Selectivity (LOG10) ([7]; fibrin vs LPS, LOG10, Table 6): 3.99; Fibrin Selectivity ([7]; fibrin vs LPS, Table 6): 9814
C[C@H]1[C@H](OC(=O)CCC(=O)O)O[C@@H]2O[C@@]3(C)CC[C@H]4[C@H](C)CC[C@@H]1[C@@]24OO3 [Artesunate, reference compound] | > 20 µM | 20% | > 20 µM | > 20 µM | > 20 µM | > 20 µM | > 20 µM | > 20 µM | Q3 | > 50% | > 50% | Q3 | Q3 | Q3 | 63% | 0% | 7 µM | 7 µM | 7 µM | 1% | inhibition at 10 µM ([1]; compounds at 10 μM): 7%; LPS % cell toxicity (primary rat microglia [4]): 0%; Quadrant (FIG. 5b) ([5]; quadrant by fibrin and LPS inhibition, HTS at 10 μM): Q4; IC50 (primary rat microglia [6]): > 20 µM; Fibrin Selectivity [7]: 3; Fibrin Selectivity (LOG10) [7]: 0.45; IC50 [7, 19]: 7 µM; inhibition at 10 µM ([7]; compounds at 10 μM): 47%; Fibrin % cell toxicity (primary rat microglia [8]; fibrin assay, dead cells (size <150 μm2)): 1%
Cc1cc(-n2c(=O)[nH]c(=O)n(C)c2=O)ccc1Oc1ccc(SC(F)(F)F)cc1 [Toltrazuril, reference compound] | > 20 µM | 90% | > 20 µM | – | > 20 µM | – | > 20 µM | > 20 µM | Q2 | – | > 50% | Q2 | – | Q2 | 104% | 2% | > 20 µM | > 20 µM | > 20 µM | 3% | inhibition at 10 µM [5, 27]: > 50%
CC1(C)O[C@@H]2C[C@H]3[C@@H]4C[C@H](F)C5=CC(=O)C=C[C@]5(C)[C@@]4(F)[C@@H](O)C[C@]3(C)[C@]2(C(=O)CO)O1 [Fluocinolone acetonide, reference compound] | < 0.001 µM | 104% | < 0.001 µM | – | < 0.001 µM | – | > 20 µM | > 20 µM | Q2 | – | > 50% | Q2 | – | – | 105% | 4% | < 0.001 µM | < 0.001 µM | < 0.001 µM | 2% | inhibition at 10 µM ([1]; 48 h, activation = cell size >800 μm2): 10%; IC50 ([1]; Table 7, read-out: LPS_IC50): 0.002 µM; inhibition at 10 µM [5, 27]: > 50%; Quadrant (FIG. 5b) ([5]; Table 2, screen at 10 μM): Q2; Activity ([5]; Table 7, fib = fibrin, LPS, tox = toxicity): fib/LPS; LPS % cell toxicity (primary rat microglia [6]; toxicity = cell size <150 μm2): 0%; IC50 ([7]; Table 7, read-out: fib_IC50): 0.002 µM; inhibition at 10 µM ([7]; activation = cell size >800 μm2): -35%; Fibrin % cell toxicity (primary rat microglia [8]; fibrin stimulation, toxicity = cell size <150 μm2): 1%
CC(=O)O[C@]1(C(C)=O)CC[C@H]2[C@@H]3C[C@H](C)C4=CC(=O)CC[C@]4(C)[C@H]3CC[C@@]21C [Medroxyprogesterone acetate, reference compound] | > 20 µM | 56% | > 20 µM | > 20 µM | > 20 µM | > 20 µM | > 20 µM | > 20 µM | Q2 | > 50% | > 50% | Q2 | Q2 | Q2 | 72% | 1% | 0.3 µM | 0.5 µM | 0.3 µM | 1% | IC50 [1, 13]: > 20 µM; IC50 (in vitro [2]; cFib assay, Table 6): > 20 µM; Quadrant (FIG. 5b) ([5]; microglia HTS, Table 6): Q2; IC50 (primary rat microglia [6]): > 20 µM; IC50 (primary rat microglia [6]; Table 6): > 20 µM; IC50 [7, 19]: 0.3 µM; IC50 [7, 20]: 0.3 µM; Fibrin Selectivity (LOG10) ([7]; fibrin vs LPS, LOG10, Table 6): 1.84 and 1.61; Fibrin Selectivity ([7]; fibrin vs LPS, Table 6): 70 and 41; Fibrin Selectivity [7, 28]: 70 and 41; Fibrin Selectivity (LOG10) [7, 28]: 1.84 and 1.61; Fibrin Selectivity ([7]; listed as Medroxyprogesterone Acetate): 70 and 41

— patent US20210330611A1, “THERAPY FOR NEUROLOGICAL DISEASES/DISORDERS” (priority 2020, published 2021)
